Data taken from the supplement of paper PMC8617591.

Legend:
[1] = test system: Mycobacterium tuberculosis Erdman (autoluminescent); assay: Einf, fitted maximum growth inhibition of combination (fraction); higher = stronger maximal inhibition
Method: (§1)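 DiaMOND equipotent two-drug combination dose responses against autoluminescent M. tuberculosis Erdman in 8 in vitro models. Read-out is OD600, or luminescence for the intracellular and dormancy models, normalised to untreated wells. Hill-fit Einf, AUC25 and GRinf are potency metrics; FIC50 and FIC90 are Loewe-additivity fractional inhibitory concentrations, given as log2 (negative = synergy). Replicates are averaged.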

[2] = test system: Mycobacterium tuberculosis Erdman (autoluminescent); assay: AUC25, normalised area under dose response up to IC25 (fraction (0-1)); higher = more potent at low dose
Method: as §1

[3] = test system: Mycobacterium tuberculosis Erdman (autoluminescent); assay: FIC90 (Loewe) at 90% inhibition (log2); higher = more antagonistic
Method: as §1

[4] = test system: Mycobacterium tuberculosis Erdman (autoluminescent); assay: GRinf, maximum normalised growth rate inhibition (unitless (-1 to 1)); higher = less effect (negative = killing)
Method: as §1

[5] = test system: Mycobacterium tuberculosis Erdman (autoluminescent); assay: FIC50 (Loewe) at 50% inhibition (log2); higher = more antagonistic
Method: as §1

COc1nc2ccc(Br)cc2cc1[C@@H](c1ccccc1)[C@@](O)(CCN(C)C)c1cccc2ccccc12 [bedaquiline] + NC(=O)c1cnccn1 [pyrazinamide]
Details	AUC25, [2]	Einf, [1]	FIC50, [5]	FIC90, [3]	GRinf, [4]
in vitro model: acidic pH 5.7, time point: constant (~7 days, model-specific)	0.0806	0.84	-0.282	-1.27	-0.398
in vitro model: acidic pH 5.7, time point: terminal (~4-5 doublings, model-specific)	0.0795	0.985	-0.0485	-0.613	-0.351
in vitro model: intracellular J774, time point: constant = terminal	–	0.99	–	0.411	-0.387

Details	AUC25, [2]	Einf, [1]	FIC50, [5]	FIC90, [3]	GRinf, [4]
in vitro model: butyrate, time point: constant (~7 days, model-specific)	0.124	0.969	0.033	0.896	-0.595
in vitro model: butyrate, time point: terminal (~4-5 doublings, model-specific)	0.106	0.991	0.262	1.12	-0.941
in vitro model: cholesterol 0.05 mM, time point: constant (~7 days, model-specific)	0.101	0.746	–	–	-0.259
in vitro model: cholesterol 0.05 mM, time point: terminal (~4-5 doublings, model-specific)	0.0985	0.949	0.282	–	-0.43
in vitro model: cholesterol-high 0.2 mM, time point: constant (~7 days, model-specific)	0.0781	0.978	0.168	–	-0.543
in vitro model: cholesterol-high 0.2 mM, time point: terminal (~4-5 doublings, model-specific)	0.0705	1	0.224	0.208	-0.654
in vitro model: dormancy (butyrate + nitrate, low O2), time point: constant (~7 days, model-specific)	0.0588	0.919	-1.06	-1.22	0.131
in vitro model: dormancy (butyrate + nitrate, low O2), time point: terminal (~4-5 doublings, model-specific)	0.0543	0.98	-0.504	-0.991	-0.121
in vitro model: standard 7H9 glycerol, time point: constant = terminal	0.072	0.943	-0.45	–	-0.0583
in vitro model: valerate, time point: constant (~7 days, model-specific)	0.0845	0.896	0.247	–	-0.0105
in vitro model: valerate, time point: terminal (~4-5 doublings, model-specific)	0.057	0.943	0.318	0.391	0.0136

COc1nc2ccc(Br)cc2cc1[C@@H](c1ccccc1)[C@@](O)(CCN(C)C)c1cccc2ccccc12 [bedaquiline] + NNC(=O)c1ccncc1 [isoniazid]
Details	AUC25, [2]	Einf, [1]	FIC50, [5]	FIC90, [3]	GRinf, [4]
in vitro model: acidic pH 5.7, time point: constant (~7 days, model-specific)	0.107	0.873	0.428	–	-0.331
in vitro model: acidic pH 5.7, time point: terminal (~4-5 doublings, model-specific)	0.0934	0.984	0.351	0.404	-0.384
in vitro model: intracellular J774, time point: constant = terminal	–	0.98	–	0.531	-0.383

Details	AUC25, [2]	Einf, [1]	FIC50, [5]	FIC90, [3]	GRinf, [4]
in vitro model: butyrate, time point: constant (~7 days, model-specific)	0.0598	0.944	0.533	0.547	-0.0886
in vitro model: butyrate, time point: terminal (~4-5 doublings, model-specific)	0.0557	0.98	0.43	0.506	-0.111
in vitro model: cholesterol 0.05 mM, time point: constant (~7 days, model-specific)	0.102	0.729	0.373	–	-0.169
in vitro model: cholesterol 0.05 mM, time point: terminal (~4-5 doublings, model-specific)	0.0662	0.913	0.302	0.193	-0.202
in vitro model: cholesterol-high 0.2 mM, time point: constant (~7 days, model-specific)	0.0815	0.964	0.284	0.699	-0.49
in vitro model: cholesterol-high 0.2 mM, time point: terminal (~4-5 doublings, model-specific)	0.0507	0.996	0.335	0.25	-0.658
in vitro model: dormancy (butyrate + nitrate, low O2), time point: constant (~7 days, model-specific)	0.0656	0.92	0.646	0.194	0.179
in vitro model: dormancy (butyrate + nitrate, low O2), time point: terminal (~4-5 doublings, model-specific)	0.0512	0.983	0.0908	-0.202	-0.0876
in vitro model: standard 7H9 glycerol, time point: constant = terminal	0.0578	0.966	-0.0769	-0.0712	-0.124
in vitro model: valerate, time point: constant (~7 days, model-specific)	0.0996	0.946	0.561	0.24	-0.194
in vitro model: valerate, time point: terminal (~4-5 doublings, model-specific)	0.0554	0.971	0.661	0.741	-0.129

COc1nc2ccc(Br)cc2cc1[C@@H](c1ccccc1)[C@@](O)(CCN(C)C)c1cccc2ccccc12 [bedaquiline] + O=[N+]([O-])c1cn2c(n1)OC[C@@H](OCc1ccc(OC(F)(F)F)cc1)C2 [pretomanid]
Details	AUC25, [2]	Einf, [1]	FIC50, [5]	FIC90, [3]	GRinf, [4]
in vitro model: acidic pH 5.7, time point: constant (~7 days, model-specific)	0.121	0.879	0.399	0.503	-0.293
in vitro model: acidic pH 5.7, time point: terminal (~4-5 doublings, model-specific)	0.0888	0.973	0.169	0.292	-0.358
in vitro model: intracellular J774, time point: constant = terminal	–	1	–	0.703	-0.579

Details	AUC25, [2]	Einf, [1]	FIC50, [5]	FIC90, [3]	GRinf, [4]
in vitro model: butyrate, time point: constant (~7 days, model-specific)	0.105	0.96	0.76	1.49	-0.17
in vitro model: butyrate, time point: terminal (~4-5 doublings, model-specific)	0.0889	0.99	0.874	1.5	-0.346
in vitro model: cholesterol 0.05 mM, time point: constant (~7 days, model-specific)	0.118	0.737	0.484	–	-0.158
in vitro model: cholesterol 0.05 mM, time point: terminal (~4-5 doublings, model-specific)	0.0926	0.928	0.466	1.33	-0.23
in vitro model: cholesterol-high 0.2 mM, time point: constant (~7 days, model-specific)	0.0648	0.883	0.673	1.04	-0.183
in vitro model: cholesterol-high 0.2 mM, time point: terminal (~4-5 doublings, model-specific)	0.0479	0.991	0.686	0.706	-0.576
in vitro model: dormancy (butyrate + nitrate, low O2), time point: constant (~7 days, model-specific)	0.0466	0.927	-0.341	-0.857	0.169
in vitro model: dormancy (butyrate + nitrate, low O2), time point: terminal (~4-5 doublings, model-specific)	0.0475	0.98	-0.522	-1.14	-0.0913
in vitro model: standard 7H9 glycerol, time point: constant = terminal	0.0817	0.982	0.0934	0.269	-0.196
in vitro model: valerate, time point: constant (~7 days, model-specific)	0.136	0.935	0.105	1.2	-0.238
in vitro model: valerate, time point: terminal (~4-5 doublings, model-specific)	0.099	0.96	0.0653	0.71	-0.0796
